The text below walks through data of US6613776B2, “Pyrazole compounds useful as protein kinase inhibitors” (Vertex Pharmaceuticals Incorporated, priority 2000, dated 2003).

Structures are written as SMILES. Bounds are passed on as bounds.

In general, Ki refers to the dissociation constant of the complex between target and ligand, obtained from inhibition or displacement. Read a low Ki as a stronger hold on the target. The term melting point denotes the temperature of the solid-liquid transition.

In one data set the target is T1, GSK-3β (AA 1-420) (Homo sapiens, UniProt P49841).
T1 construct: GSK-3β (AA 1-420)
In words: Ki determination for the inhibition of GSK-3 (coupled enzyme system). The class given is biochemical. As to conditions: 20 μM ATP, 300 μM peptide, 20 nM GSK-3β, 30° C. The protocol:
Compounds were screened for their ability to inhibit GSK-3β (AA 1-420) activity using a standard coupled enzyme system (Fox et al. (1998) Protein Sci. 7, 2249). Reactions were carried out in a solution containing 100 mM HEPES (pH 7.5), 10 mM MgCl2, 25 mM NaCl, 300 μM NADH, 1 mM DTT and 1.5% DMSO. Final substrate concentrations in the assay were 20 μM ATP (Sigma Chemicals, St Louis, Mo.) and 300 μM peptide (HSSPHQS(PO3H2)EDEEE, American Peptide, Sunnyvale, Calif.). Reactions were carried out at 30° C. and 20 nM GSK-3β. Final concentrations of the components of the coupled enzyme system were 2.5 mM phosphoenolpyruvate, 300 μM NADH, 30 μg/ml pyruvate kinase and 10 μg/ml lactate dehydrogenase.
An assay stock buffer solution was prepared containing all of the reagents listed above with the exception of ATP and the test compound of interest. The assay stock buffer solution (175 μl) was incubated in a 96 well plate with 5 μl of the test compound of interest at final concentrations spanning 0.002 μM to 30 μM at 30° C. for 10 min. Typically, a 12 point titration was conducted by preparing serial dilutions (from 10 mM compound stocks) with DMSO of the test compounds in daughter plates. […] Rates of reaction were obtained using a Molecular Devices Spectramax plate reader (Sunnyvale, Calif.) over 10 min at 30° C. The Ki values were determined from the rate data as a function of inhibitor concentration.

For another data set, the target named is T2, Aurora-2 (Homo sapiens, UniProt O14965).
T2 sequence (O14965 1-403): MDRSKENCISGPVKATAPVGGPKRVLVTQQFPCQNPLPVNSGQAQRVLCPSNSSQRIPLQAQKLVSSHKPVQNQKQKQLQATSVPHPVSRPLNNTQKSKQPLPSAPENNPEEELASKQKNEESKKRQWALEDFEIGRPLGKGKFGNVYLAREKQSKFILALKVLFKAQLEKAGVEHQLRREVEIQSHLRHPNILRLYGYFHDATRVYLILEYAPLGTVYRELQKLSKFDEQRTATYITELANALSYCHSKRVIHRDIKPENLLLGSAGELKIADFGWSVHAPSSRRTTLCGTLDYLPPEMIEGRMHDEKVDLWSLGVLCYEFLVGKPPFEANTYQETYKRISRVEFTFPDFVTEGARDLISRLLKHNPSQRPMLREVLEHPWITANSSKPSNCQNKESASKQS
The experiment in a line: Ki determination for the inhibition of Aurora-2 (coupled enzyme assay). The format is biochemical. The note with it: 70 nM Aurora-2, 30° C. How it is done:
Compounds were screened in the following manner for their ability to inhibit Aurora-2 using a standard coupled enzyme assay (Fox et al (1998) Protein Sci 7, 2249).
To an assay stock buffer solution containing 0.1M HEPES 7.5, 10 mM MgCl2, 1 mM DTT, 25 mM NaCl, 2.5 mM phosphoenolpyruvate, […], 30 mg/ml pyruvate kinase, 10 mg/ml lactate dehydrogenase, […], and 800 μM peptide (LRRASLG, American Peptide, Sunnyvale, Calif.) was added a DMSO solution of a compound of the present invention to a final concentration of 30 μM. The resulting mixture was incubated at 30° C. for 10 min. The reaction was initiated by the addition of 10 μL of Aurora-2 stock solution to give a final concentration of 70 nM in the assay. The rates of reaction were obtained by monitoring absorbance at 340 nm over a 5 minute read time at 30° C. using a BioRad Ultramark plate reader (Hercules, Calif.). The Ki values were determined from the rate data as a function of inhibitor concentration.

T1 sequence (P49841 whole entry, the tested form may be a part): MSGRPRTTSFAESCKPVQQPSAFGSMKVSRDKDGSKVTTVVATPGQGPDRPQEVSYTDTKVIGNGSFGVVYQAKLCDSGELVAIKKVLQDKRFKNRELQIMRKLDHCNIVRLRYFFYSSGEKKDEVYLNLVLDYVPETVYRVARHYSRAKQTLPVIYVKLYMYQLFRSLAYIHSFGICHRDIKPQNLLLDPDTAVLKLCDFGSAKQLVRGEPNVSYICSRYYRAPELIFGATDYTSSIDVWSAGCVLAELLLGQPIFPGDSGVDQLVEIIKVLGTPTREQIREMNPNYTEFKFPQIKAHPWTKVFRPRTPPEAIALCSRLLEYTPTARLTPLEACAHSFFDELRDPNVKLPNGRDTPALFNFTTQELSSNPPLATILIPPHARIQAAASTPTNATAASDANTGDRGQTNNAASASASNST

On GSK-3β (AA 1-420), `COC(=O)c1cc(Nc2ccnc(N3CCCCC3)n2)n[nH]1` [IV-8] yielded an inhibitory constant (Ki) of 100 to 1000 nM.
In the case of `Cc1cc(Nc2nc(N3CCC(C)CC3)nc3nc[nH]c23)n[nH]1` [IV-33, [2-(4-Methylpiperidin-1-yl)-purin-4-yl]-(S-methyl-2H-pyrazol-3-yl)-amine], the melting point was greater than 300 °C. The Ki on GSK-3β (AA 1-420) is 100 to 1000 nM. This compound had an inhibitory constant (Ki) at Aurora-2 of 100 to 1000 nM.
